pEC50, pIC50: −log10 of the molar value. Blank lines part the entries; values can stand above or below the compound they belong to. Active and inactive are the calls of the source. No cut-off for these calls is given here.
What was measured:
[1] = target: T1, Glucagon-like peptide 1 receptor (Homo sapiens, UniProt P43220); experiment: Agonist activity at N-terminal HA-tagged human GLP-1R expressed in HEK293 cells assessed as effect on intracellular cAMP accumulation incubated for 30 mins by LANCA ultra cAMP assay; type: functional, cell-based
hERG (KCNH2) [2] = target: T2, hERG (KCNH2) (Homo sapiens, UniProt Q12809); experiment: Inhibition of hERG at 40 uM relative to control
[3] = target: Voltage-gated inwardly rectifying potassium channel KCNH2 (Homo sapiens, UniProt Q12809); experiment: Inhibition of hERG
[4] = Stability in human liver microsomes assessed as half-life at 1 uM measured upto 60 mins in the presence of NADPH by LC-MS/MS analysis; type: ADME, Microsome
[5] = Stability in rat liver microsomes assessed as half-life at 1 uM measured upto 60 mins in the presence of NADPH by LC-MS/MS analysis; type: ADME, Microsome
[6] = Stability in mouse liver microsomes assessed as half-life at 1 uM measured upto 60 mins in the presence of NADPH by LC-MS/MS analysis; type: ADME, Microsome
[7] = Stability in human liver microsomes assessed as intrinsic clearance at 1 uM measured upto 60 mins in the presence of NADPH by LC-MS/MS analysis; type: ADME, Microsome; conditions: 1 h
[8] = Stability in rat liver microsomes assessed as intrinsic clearance at 1 uM measured upto 60 mins in the presence of NADPH by LC-MS/MS analysis; type: ADME, Microsome; conditions: 1 h
[9] = Stability in mouse liver microsomes assessed as intrinsic clearance at 1 uM measured upto 60 mins in the presence of NADPH by LC-MS/MS analysis; type: ADME, Microsome; conditions: 1 h
[10] = Drug concentration in C57BL/6J mouse plasma at 5 mg/kg, po measured after 1 hrs by LC-MS/MS analysis; type: ADME, organism-based
[11] = Drug concentration in C57BL/6J mouse plasma at 5 mg/kg, po measured after 4 hrs by LC-MS/MS analysis; type: ADME, organism-based
[12] = Apparent permeability across apical to basolateral side in human Caco-2 cells at 10 uM measured after 95 mins by LC-MS/MS analysis; type: ADME, cell-based
[13] = target: T3, Glucagon-like peptide 1 receptor (Mus musculus) (UniProt O35659); experiment: Activation of mouse GLP-1R
T3 sequence (whole entry): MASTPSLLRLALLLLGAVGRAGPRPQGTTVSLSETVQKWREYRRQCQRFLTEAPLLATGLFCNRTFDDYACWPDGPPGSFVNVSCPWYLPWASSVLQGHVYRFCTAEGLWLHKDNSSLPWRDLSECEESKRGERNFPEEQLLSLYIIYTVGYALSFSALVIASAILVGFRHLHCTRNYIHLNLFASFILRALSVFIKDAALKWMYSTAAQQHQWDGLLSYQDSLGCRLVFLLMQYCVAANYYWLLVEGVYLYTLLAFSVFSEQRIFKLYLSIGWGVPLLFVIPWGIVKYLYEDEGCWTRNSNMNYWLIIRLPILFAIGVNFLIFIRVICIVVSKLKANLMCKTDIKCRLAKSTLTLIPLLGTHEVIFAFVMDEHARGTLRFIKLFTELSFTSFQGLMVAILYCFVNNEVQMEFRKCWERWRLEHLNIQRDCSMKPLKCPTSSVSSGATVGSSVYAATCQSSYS

[14] = Half-life in Sprague-Dawley rat at 5 mg/kg, po measured upto 24 hrs by LC-MS/MS analysis; type: ADME, organism-based; conditions: in vivo
[15] = Tmax in Sprague-Dawley rat at 5 mg/kg, po measured upto 24 hrs by LC-MS/MS analysis; type: ADME, organism-based; conditions: in vivo
[16] = Cmax in Sprague-Dawley rat at 5 mg/kg, po measured upto 24 hrs by LC-MS/MS analysis; type: ADME, organism-based; parameters: time < 24 hrs, dose 5 mg/kg, route po; conditions: in vivo
[17] = AUClast in Sprague-Dawley rat at 5 mg/kg, po measured upto 24 hrs by LC-MS/MS analysis; type: ADME, organism-based; parameters: dose 5 mg/kg, time < 24 hrs, route po; conditions: in vivo
[18] = target: T1, Glucagon-like peptide 1 receptor; experiment: Agonist activity at N-terminal HA-tagged human GLP-1R expressed in HEK293 cells assessed as change in intracellular calcium level by Fluo-4 AM dye based calcium mobilization assay; type: functional, cell-based
[19] = target: T1, Glucagon-like peptide 1 receptor; experiment: (§1) Partial agonist activity at N-terminal HA-tagged human GLP-1R expressed in HEK293 cells co-expressing Smbit-beta-arrestin 1/2 and GLP-1R-LgBit assessed as beta-arrestin-1 recruitment measured after 5 mins by bioluminescence based NanoBiT assay; type: functional, cell-based
[20] = target: T1, Glucagon-like peptide 1 receptor; experiment: (§2) Partial agonist activity at N-terminal HA-tagged human GLP-1R expressed in HEK293 cells co-expressing Smbit-beta-arrestin 1/2 and GLP-1R-LgBit assessed as beta-arrestin-2 recruitment measured after 5 mins by bioluminescence based NanoBiT assay; type: functional, cell-based
Mus musculus [21] = experiment: (§3) In vivo agonist activity at GLP-1R in C57BL/6J mouse with human GLP-1R knock-in assessed as reduction in blood glucose level at 1 mg/kg, po pre-treated with compound for 1 hrs followed by glucose administration and measured upto 90 mins by Oral Glucose Tolerance Test; type: functional, organism-based; conditions: time <= 150.0 min
Mus musculus [22] = experiment: as §3, with “administration for 3 hrs and further treated with second glucose dose” for “administration”, “270” for “90”; type: functional, organism-based; conditions: time <= 330.0 min
Mus musculus [23] = experiment: In vivo agonist activity at GLP-1R in C57BL/6J mouse with human GLP-1R knock-in assessed as reduction in food intake at 30 mg/kg, sc measured after 2.5 to 12 hrs in dark cycle; type: functional, organism-based; conditions: time 2.5-12 hrs
[24] = target: T1, Glucagon-like peptide 1 receptor; experiment: as §1, with “Potency index, ratio of danuglipron EC50 to test compound EC50 for partial” for “Partial”; type: functional, cell-based
[25] = target: T1, Glucagon-like peptide 1 receptor; experiment: as §2, with “Potency index, ratio of danuglipron EC50 to test compound EC50 for partial” for “Partial”; type: functional, cell-based
[26] = target: T1, Glucagon-like peptide 1 receptor; experiment: Potency index, ratio of danuglipron EC50 to test compound EC50 for agonist activity at N-terminal HA-tagged human GLP-1R expressed in HEK293 cells assessed as change in intracellular calcium level by Fluo-4 AM dye based calcium mobilization assay; type: functional, cell-based
[27] = target: T4, Gastric inhibitory polypeptide receptor (Homo sapiens) (UniProt P48546); experiment: Agonist activity at GIPR (unknown origin) expressed in HEK293 cells assessed as effect on intracellular cAMP accumulation incubated for 30 mins by LANCA ultra cAMP assay; type: functional, cell-based
T4 sequence (whole entry): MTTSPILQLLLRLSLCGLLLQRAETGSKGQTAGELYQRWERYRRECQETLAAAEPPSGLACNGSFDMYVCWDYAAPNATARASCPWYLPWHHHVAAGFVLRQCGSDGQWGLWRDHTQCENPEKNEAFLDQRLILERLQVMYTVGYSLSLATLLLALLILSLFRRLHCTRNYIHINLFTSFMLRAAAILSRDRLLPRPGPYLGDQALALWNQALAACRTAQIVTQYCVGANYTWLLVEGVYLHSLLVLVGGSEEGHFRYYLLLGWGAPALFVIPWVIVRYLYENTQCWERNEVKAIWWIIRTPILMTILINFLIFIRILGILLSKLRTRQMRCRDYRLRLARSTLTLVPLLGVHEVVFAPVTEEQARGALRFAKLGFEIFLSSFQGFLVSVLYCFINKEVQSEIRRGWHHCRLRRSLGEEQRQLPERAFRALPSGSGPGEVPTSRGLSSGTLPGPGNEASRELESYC

[28] = target: T5, Glucagon-like peptide 2 receptor (Homo sapiens) (UniProt O95838); experiment: Agonist activity at GLP-2R (unknown origin) expressed in HEK293 cells assessed as effect on intracellular cAMP accumulation incubated for 30 mins by LANCA ultra cAMP assay; type: functional, cell-based
T5 sequence (whole entry): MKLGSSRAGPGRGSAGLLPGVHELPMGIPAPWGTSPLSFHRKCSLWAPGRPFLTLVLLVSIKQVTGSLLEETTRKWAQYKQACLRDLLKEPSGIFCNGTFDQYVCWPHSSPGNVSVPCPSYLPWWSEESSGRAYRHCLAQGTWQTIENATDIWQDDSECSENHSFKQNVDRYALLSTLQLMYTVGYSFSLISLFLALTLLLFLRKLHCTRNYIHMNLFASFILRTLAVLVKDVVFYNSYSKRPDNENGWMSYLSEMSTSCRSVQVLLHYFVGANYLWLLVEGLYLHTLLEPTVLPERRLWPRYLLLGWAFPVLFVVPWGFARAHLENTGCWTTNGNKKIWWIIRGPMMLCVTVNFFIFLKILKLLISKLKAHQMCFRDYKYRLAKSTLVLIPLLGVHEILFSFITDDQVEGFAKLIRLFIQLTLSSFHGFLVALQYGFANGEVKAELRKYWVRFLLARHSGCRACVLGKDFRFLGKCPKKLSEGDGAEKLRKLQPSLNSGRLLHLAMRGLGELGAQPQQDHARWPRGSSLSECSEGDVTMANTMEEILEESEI

[29] = target: Glucagon receptor (Homo sapiens) (UniProt P47871); experiment: Agonist activity at GCGR (unknown origin) expressed in HEK293 cells assessed as effect on intracellular cAMP accumulation incubated for 30 mins by LANCA ultra cAMP assay; type: functional, cell-based
hERG (KCNH2) [30] = target: T2, hERG (KCNH2); experiment: Inhibition of hERG at 3 uM relative to control

Chain of Voltage-gated inwardly rectifying potassium channel KCNH2 (Q12809 whole entry): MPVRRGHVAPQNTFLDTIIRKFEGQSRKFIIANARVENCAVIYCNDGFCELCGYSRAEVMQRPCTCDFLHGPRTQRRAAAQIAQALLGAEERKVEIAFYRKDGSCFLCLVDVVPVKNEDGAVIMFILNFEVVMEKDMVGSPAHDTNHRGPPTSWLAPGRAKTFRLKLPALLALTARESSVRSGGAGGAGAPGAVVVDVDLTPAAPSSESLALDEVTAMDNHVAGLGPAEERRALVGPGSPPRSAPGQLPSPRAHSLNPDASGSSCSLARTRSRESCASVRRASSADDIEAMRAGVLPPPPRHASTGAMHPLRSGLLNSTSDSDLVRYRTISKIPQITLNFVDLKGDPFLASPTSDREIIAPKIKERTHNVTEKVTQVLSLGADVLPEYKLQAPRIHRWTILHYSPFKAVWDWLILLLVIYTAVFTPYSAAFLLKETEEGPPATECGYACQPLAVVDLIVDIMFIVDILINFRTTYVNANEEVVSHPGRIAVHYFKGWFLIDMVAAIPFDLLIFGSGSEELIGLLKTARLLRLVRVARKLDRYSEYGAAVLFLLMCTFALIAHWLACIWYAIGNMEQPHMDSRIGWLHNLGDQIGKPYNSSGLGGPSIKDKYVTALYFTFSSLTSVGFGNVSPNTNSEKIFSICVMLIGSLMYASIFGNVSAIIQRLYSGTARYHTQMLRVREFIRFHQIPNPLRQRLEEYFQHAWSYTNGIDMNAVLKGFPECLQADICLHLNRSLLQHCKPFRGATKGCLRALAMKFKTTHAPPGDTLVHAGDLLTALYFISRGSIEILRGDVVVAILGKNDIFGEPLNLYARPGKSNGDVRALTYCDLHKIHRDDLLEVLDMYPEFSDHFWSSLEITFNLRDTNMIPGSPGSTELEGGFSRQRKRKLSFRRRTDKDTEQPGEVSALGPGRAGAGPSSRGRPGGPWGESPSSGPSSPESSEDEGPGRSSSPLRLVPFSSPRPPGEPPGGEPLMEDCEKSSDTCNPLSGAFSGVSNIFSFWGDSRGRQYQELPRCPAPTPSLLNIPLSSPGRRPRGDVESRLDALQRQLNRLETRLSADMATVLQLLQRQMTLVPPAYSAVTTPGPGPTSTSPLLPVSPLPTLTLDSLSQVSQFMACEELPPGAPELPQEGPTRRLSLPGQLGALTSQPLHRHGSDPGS
T2 sequence (Q12809 whole entry): as above
T1 sequence (P43220 whole entry): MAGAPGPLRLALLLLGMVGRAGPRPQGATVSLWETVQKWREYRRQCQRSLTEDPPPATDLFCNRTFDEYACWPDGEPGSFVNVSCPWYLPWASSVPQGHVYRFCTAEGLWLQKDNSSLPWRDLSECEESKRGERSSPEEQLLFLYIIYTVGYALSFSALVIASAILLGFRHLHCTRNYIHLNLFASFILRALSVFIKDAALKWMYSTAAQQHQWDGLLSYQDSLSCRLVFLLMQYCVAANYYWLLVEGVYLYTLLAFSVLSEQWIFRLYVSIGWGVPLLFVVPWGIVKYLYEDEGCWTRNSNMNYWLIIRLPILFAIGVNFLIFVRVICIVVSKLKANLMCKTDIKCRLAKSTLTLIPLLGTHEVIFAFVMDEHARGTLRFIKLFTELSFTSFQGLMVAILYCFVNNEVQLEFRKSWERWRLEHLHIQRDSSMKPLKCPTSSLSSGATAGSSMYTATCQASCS
Chain of Glucagon receptor (Homo sapiens) (P47871 whole entry): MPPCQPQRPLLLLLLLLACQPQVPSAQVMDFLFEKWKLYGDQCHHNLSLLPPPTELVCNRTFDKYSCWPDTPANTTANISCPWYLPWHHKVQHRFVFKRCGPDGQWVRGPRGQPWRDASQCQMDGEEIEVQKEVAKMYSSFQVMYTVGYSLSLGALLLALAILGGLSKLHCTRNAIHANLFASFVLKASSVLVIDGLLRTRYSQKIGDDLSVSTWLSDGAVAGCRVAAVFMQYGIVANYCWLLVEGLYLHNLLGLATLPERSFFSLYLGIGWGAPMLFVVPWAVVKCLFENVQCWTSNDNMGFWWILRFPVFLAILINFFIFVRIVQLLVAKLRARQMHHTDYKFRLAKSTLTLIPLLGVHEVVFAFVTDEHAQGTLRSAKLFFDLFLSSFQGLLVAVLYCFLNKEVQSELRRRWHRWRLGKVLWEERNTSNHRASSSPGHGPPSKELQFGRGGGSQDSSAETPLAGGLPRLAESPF

- pEC50 [1]: 11.22
- half-life at 1 µM [4]: 2.87 h
- half-life at 1 µM [5]: 1.25 h
- half-life at 1 µM [6]: 1.28 h
- CLH [7]: 12 mL/min/g
- CLH [8]: 28 mL/min/g
- CLH [9]: 27 mL/min/g
- concentration at 1 h [10]: 132 ng/mL
- concentration at 4 h [11]: 35 ng/mL
- Papp A→B at 1.583 h, 10 µM [12]: 0.57 ×10⁻⁶ cm/s
- Activity [13]: inactive
- half-life [14]: 1.05 h
- Tmax [15]: 0.25 h
- Cmax [16]: 130 ng/mL
- AUC(0-t) at 24 h [17]: 70 ng·h/mL
- pEC50 [18]: 6.77
- pEC50 [19]: 6.76
- pEC50 [20]: 6.87
- Ratio EC50 [24]: 10
- Ratio EC50 [25]: 10
- Ratio EC50 [26]: 10
- Activity [27]: inactive
- Activity [28]: inactive
- Activity [29]: inactive
SMILES: COc1cc(C(F)(F)F)ccc1COc1cccc(N2C=NN(Cc3nc4c(F)cc(C(=O)O)cc4n3C[C@@H]3CCO3)CC2)n1
- inhibition at 40 µM (hERG (KCNH2) [2]): 20%
- pIC50 [3]: < 4.40
- Activity (Mus musculus [21]): Active
- Activity (Mus musculus [22]): Active
- Activity (Mus musculus [23]): Active

- half-life at 1 µM [4]: 5.45 h
- half-life at 1 µM [5]: 2.23 h
- half-life at 1 µM [6]: 3.03 h
- CLH [7]: 6 mL/min/g
- CLH [8]: 16 mL/min/g
- CLH [9]: 12 mL/min/g
- concentration at 1 h [10]: 12 ng/mL
- concentration at 4 h [11]: 3 ng/mL
- Papp A→B at 1.583 h, 10 µM [12]: 0.19 ×10⁻⁶ cm/s
SMILES: COc1cc(C#N)ccc1COc1cccc(N2C=NN(Cc3nc4c(F)cc(C(=O)O)cc4n3C[C@@H]3CCO3)CC2)n1
- inhibition at 40 µM (hERG (KCNH2) [2]): 50%
- pIC50 [3]: < 4.40

- pEC50 [1]: < 5.00
SMILES: O=C(O)c1ccc2nc(Cn3ccc(-c4cccc(OCc5ccc(Cl)cc5F)n4)nc3=O)n(C[C@@H]3CCO3)c2c1

SMILES: N#Cc1ccc(COc2cccc(N3C=NN(Cc4nc5ccc(C(=O)O)cc5n4C[C@@H]4CCO4)CC3)n2)c(F)c1
- inhibition at 40 µM (hERG (KCNH2) [2]): 48%
- pIC50 [3]: < 4.40

- half-life at 1 µM [4]: 1.5 h
- half-life at 1 µM [5]: 0.6 h
- half-life at 1 µM [6]: 0.517 h
- CLH [7]: 23 mL/min/g
- CLH [8]: 59 mL/min/g
- CLH [9]: 67 mL/min/g
SMILES: O=C(O)c1cc(F)c2nc(CN3CCN(c4cccc(OCc5ccc(Cl)c6c5OCC6)n4)C=N3)n(C[C@@H]3CCO3)c2c1
- inhibition at 40 µM (hERG (KCNH2) [2]): 51%
- pIC50 [3]: 7.30

SMILES: COc1cc(N)c(Cl)cc1C(=O)N[C@H]1CCN(CCCOc2ccc(F)cc2)C[C@H]1OC [REL-CISAPRIDE]
- inhibition at 3 µM (hERG (KCNH2) [30]): 92%

- half-life at 1 µM [4]: 1.67 h
- half-life at 1 µM [5]: 0.783 h
- half-life at 1 µM [6]: 0.717 h
- CLH [7]: 21 mL/min/g
- CLH [8]: 45 mL/min/g
- CLH [9]: 49 mL/min/g
SMILES: COc1cc(Cl)ccc1COc1cccc(N2C=NN(Cc3nc4c(F)cc(C(=O)O)cc4n3C[C@@H]3CCO3)CC2)n1
- inhibition at 40 µM (hERG (KCNH2) [2]): 44%
- pIC50 [3]: < 4.40

- half-life at 1 µM [4]: 2.48 h
- half-life at 1 µM [5]: 1.05 h
- half-life at 1 µM [6]: 2.07 h
- CLH [7]: 14 mL/min/g
- CLH [8]: 33 mL/min/g
- CLH [9]: 17 mL/min/g
SMILES: N#Cc1ccc(COc2cccc(N3C=NN(Cc4nc5c(F)cc(C(=O)O)cc5n4C[C@@H]4CCO4)CC3)n2)c2occc12
- inhibition at 40 µM (hERG (KCNH2) [2]): 30%
- pIC50 [3]: < 4.40

From ChEMBL document CHEMBL5338823, “Discovery of Novel 5,6-Dihydro-1,2,4-triazine Derivatives as Efficacious Glucagon-Like Peptide-1 Receptor Agonists” (J Med Chem, 2023)
